Assay results taken from patent US7507739B2, “6-[(substituted)phenyl]triazolopyrimidines as anticancer agents” (Wyeth, priority 2003, dated 2009).

Assays:
pure tubulin = experiment: Tubulin polymerization test with pure tubulin without GTP; assay type: biochemical, bovine; details: no GTP
Experimental: (§1) Medium is RPMI-1640 with L-glutamine, supplemented with 10% heat-inactivated fetal calf serum, 100 units/ml penicillin, and 100 μg/ml streptomycin (Gibco, Grand Island, N.Y.). Microtubule-associated protein (MAP)-rich tubulin, containing about 70% tubulin and 30% MAPs (#ML113), and highly purified tubulin (>99% pure, #TL238), both from bovine brain, are obtained from Cytoskeleton, Inc., Denver, Colo. PEM buffer (80 mM piperazine-N,N′-bis[2-ethanesulfonic acid], pH 6.9, 1 mM ethylene glycol-bis(β-aminoethyl ether)-N,N,N′,N′-tetraacetic acid, 1 mM magnesium chloride) and guanosine 5′-triphosphate (GTP) are also obtained from Cytoskeleton. [3H]paclitaxel, specific activity 14.7 Ci/mmol, is purchased from Moravek Biochemicals (Brea, Calif.). [^3H]vinblastine, specific activity 9.60 Ci/mmol and MicroSpin G-50 columns are obtained from Amersham Biosciences (Piscataway, N.J.). […] Other reagents are obtained from Sigma (St. Louis, Mo.).
Two variations of this procedure are done, one using MAP-rich tubulin and one using pure tubulin.
The procedure with pure tubulin is similar except for the following changes. […] The supernatant after centrifugation is dispensed to a 96-well plate already containing compounds. Each compound is tested in duplicate at six serial 3-fold dilutions starting at 24.3 μM. The plate reader is thermostated at 35°.

KB-V1 cells = experiment: MTS cytotoxicity test with KB-V1 cells (very high P-glycoprotein); assay type: cell-based, human; details: for IC50: Homo sapiens, KB-V1 cells, MTS; for Ratio VI/KB: IC50 on KB VI cells/IC50 on KB cells; for recognition by P-glycoprotein: inferred from IC50 on KB-V1 compared to parental KB line
From the text: (§2) Human cancer cell lines, unless otherwise noted, are obtained from the American Type Culture Collection (Rockville, Md.). The following drug-sensitive parental cell lines, and their derived drug-resistant counterparts, are obtained from the originators as listed: (a) S1 (parental line from a subclone of human colon carcinoma line LS174T) and derived S1-M1-3.2 (herein called S1-M1) which expresses the MXR drug transporter protein, are provided by Dr. L. Greenberger, Wyeth Research (Rabindran, S. K., He, H., Singh, M., Brown, E., Collins, K. I., Annable, T., and Greenberger, L. M. Reversal of a novel multidrug resistance mechanism in human colon carcinoma cells by fumitremorgin C. Cancer Res., 58:5850-5858,1998); (b) parental HL-60 human promyelocytic leukemia line and derived HL-60/ADR, which expresses the MRP1 drug transporter protein, are provided by Dr. M. Center, University of Kansas (McGrath, T., and Center, M. S. Adriamycin resistance in HL60 cells in the absence of detectable P-glycoprotein. Biochem. Biophys. […] J. Biol. Chem., 261: 7762-7770,1986) via Dr. L. Greenberger, Wyeth Research.
(§3) The assay, which is sold in kit form by Promega (Madison, Wis.; CellTiter 96 AQueous Non-Radioactive Cell Proliferation Assay), is based on the conversion by viable cells, but not by dead cells, of the tetrazolium salt, MTS (3-(4,5-dimethylthiazol-2-yl)-5-(3-carboxymethoxyphenyl)-2-(4-sulphophenyl)-2H-tetrazolium, inner salt), into a water-soluble colored formazan which is detected by spectrophotometry. Compounds are tested at nine concentrations, in order to determine IC50 values. For the test procedure, cells are harvested by trypsinization (or, in the case of non-adherent cells, by simple resuspension), washed, counted and distributed to wells of 96-well flat-bottom microtiter plates at 1000 cells per well in 200 μL of medium. In addition, one row of wells on a separate plate received cells as above (“time 0” plate). All plates are incubated at 37° in humidified 5% CO2 in air for about 24 hr.
(§4) On day 2, compounds for test are diluted and added to wells. Compounds are dissolved in DMSO at 10 mg/mL. For each compound, nine serial 2-fold dilutions are prepared in DMSO. Ten μL of each dilution in DMSO is transferred to 100 μL of medium, mixed well, and then 5 μL of this dilution is transferred in quadruplicate to wells containing cells. […] Plates are returned to the incubator for three days. At the time of drug addition to the experimental plates, the MTS assay is run on the “time 0” plate. This produced the “time 0 MTS value” which is related to the number of viable cells per well at the time of drug addition.
(§5) After three days of culture with test compounds (day 5 overall), the MTS assay is done on all wells of the experimental plates. The absorbance values of the quadruplicate sample wells are averaged and divided by the average of the “time 0” values. […] The nine values for each compound are plotted against concentration, and the concentration that produced a relative color yield half way between the maximum and minimum is taken as the IC50 value.
(§6) The KB lines express different amounts of the P-glycoprotein (MDR1) membrane pump which produces resistance to the action of many cytotoxic compounds, including paclitaxel and vincristine. The parental KB line expresses no P-glycoprotein, KB-8-5 expresses moderate levels of the protein, and KB-V1 expresses very high levels.

HL-60/ADR cells = experiment: MTS cytotoxicity test with HL-60/ADR cells (MRP1); assay type: cell-based, human; details: for IC50: Homo sapiens, HL60/ADR, HL-60/ADR cells, MTS, read-out: IC50 HL-60/ADR; for Ratio: IC50 on HL-60/ADR cells/IC50 on HL-60 cells
From the text: as §2, §3, §4, §5
HL-60/ADR cells overexpress the multidrug resistance protein MRP1 which mediates resistance to some chemotherapeutics (Gottesman, M. M., Fojo, T., and Bates, S. E. Multidrug resistance in cancer: role of ATP-dependent transporters. Nature Rev. Cancer, 2: 48-58, 2002). The IC50 values of representative examples of this invention, as well as reference compounds, on HL-60/ADR are compared to values on the sensitive parental HL-60 line.

KB cells = experiment: MTS cytotoxicity test with KB cells; assay type: cell-based; details: Homo sapiens; KB cells, MTS; read-out: IC50 KB
From the text: as §2, §3, §4, §5, §6

tubulin heterodimer [1] = experiment: Competitive binding test, [3H]colchicine; parameters: species or system bovine; details: [3H]colchicine 50 nM
Experimental: as §1
(§7) The binding of examples of this invention to highly purified tubulin is studied by competitive inhibition methods. […] To study possible competition at the taxane site, on the other hand, polymerized tubulin (microtubules) is used because paclitaxel binds preferentially to microtubules.
(§8) Highly purified tubulin is dissolved in PEM buffer without GTP and used at a final concentration of 1.0 to 1.3 mg/ml (10 to 13 μM). […] These solutions are incubated at 24° for 1 hr and then applied to MicroSpin G-50 columns which are centrifuged for 2 min at 3000 rpm in an Eppendorf 5415C microfuge. An aliquot of each column effluent (containing tubulin and bound radioligand) is mixed with scintillation fluid and counted in a liquid scintillation spectrometer. […] The ability of the competitor to inhibit the binding of the radioligand is expressed as a percentage of control binding in the absence of any competitor.

tubulin heterodimer [2] = experiment: Competitive binding test, [3H]vinblastine; parameters: species or system bovine; details: [3H]vinblastine 100 nM
Experimental: as §1, §7, §8

CNCCCOc1cc(F)c(-c2c(Cl)nc3ncnn3c2NCC(F)(F)F)c(F)c1.Cl [Example 3a, 5-Chloro-6-{2,6-difluoro-4-[3-(methylamino)propoxy]phenyl}-N-(2,2,2-trifluoroethyl)[1,2,4]triazolo[1,5-a]pyrimidin-7-amine hydrogen chloride Salt]
absorbance increase, polymerization of pure tubulin (pure tubulin; 2.7 μM): no effect
absorbance increase, polymerization of pure tubulin (pure tubulin; 8.1 μM): lower and less rapid increase
A340 at 0 min (pure tubulin; 24.3 μM): 0
A340 at 5 min (pure tubulin; 24.3 μM): 0.19
A340 at 10 min (pure tubulin; 24.3 μM): 0.20
A340 at 15 min (pure tubulin; 24.3 μM): 0.20
A340 at 20 min (pure tubulin; 24.3 μM): 0.20
absorbance increase, polymerization of pure tubulin (pure tubulin; 24.3 μM, first 5 min): rapid increase in absorbance
IC50 (KB-V1 cells): 2150 nM
Ratio VI/KB (KB-V1 cells): 119
recognition by P-glycoprotein (KB-V1 cells): show recognition by P-glycoprotein
IC50 (HL-60/ADR cells): 21 nM
Ratio (HL-60/ADR cells): 0.81
IC50 (KB cells): 18 nM
[3H]Colchicine binding, percent of control without competitor, Mean (tubulin heterodimer [1]): 134%
[3H]Vinblastine binding, percent of control without competitor, Mean (tubulin heterodimer [2]): 11%

CC[C@]1(O)C[C@H]2CN(CCc3c([nH]c4ccccc34)[C@@](C(=O)OC)(c3cc4c(cc3OC)N(C=O)[C@H]3[C@@](O)(C(=O)OC)[C@H](OC(C)=O)[C@]5(CC)C=CCN6CC[C@]43[C@@H]65)C2)C1 [Vincristine, reference compound]
A340 at 0 min (pure tubulin; 24.3 μM): 0
A340 at 5 min (pure tubulin; 24.3 μM): 0.01
A340 at 10 min (pure tubulin; 24.3 μM): 0.01
A340 at 15 min (pure tubulin; 24.3 μM): 0
A340 at 20 min (pure tubulin; 24.3 μM): 0
IC50 (KB-V1 cells): > 1000 nM
Ratio VI/KB (KB-V1 cells): >156
Ratio VI/KB (KB-V1 cells; listed as vincristine): > 156
IC50 (HL-60/ADR cells): 20 nM
Ratio (HL-60/ADR cells): 8.2
IC50 (KB cells): 6.4 nM
[3H]Colchicine binding, percent of control without competitor, Mean (tubulin heterodimer [1]): 99%
[3H]Vinblastine binding, percent of control without competitor, Mean (tubulin heterodimer [2]): 5%

CC(=O)O[C@H]1C(=O)[C@@]2(C)[C@H]([C@H](OC(=O)c3ccccc3)[C@]3(O)C[C@H](OC(=O)[C@H](O)[C@@H](NC(=O)c4ccccc4)c4ccccc4)C(C)=C1C3(C)C)[C@]1(OC(C)=O)CO[C@@H]1C[C@@H]2O [Paclitaxel, reference compound]
A340 at 0 min (pure tubulin; 24.3 μM): 0
A340 at 5 min (pure tubulin; 24.3 μM): 0
A340 at 10 min (pure tubulin; 24.3 μM): 0
A340 at 15 min (pure tubulin; 24.3 μM): 0.01
A340 at 20 min (pure tubulin; 24.3 μM): 0.01
IC50 (KB-V1 cells): > 1000 nM
Ratio VI/KB (KB-V1 cells): >345
Ratio VI/KB (KB-V1 cells; listed as paclitaxel): > 345
IC50 (HL-60/ADR cells): 6.4 nM
Ratio (HL-60/ADR cells): 1.1
IC50 (KB cells): 2.9 nM
[3H]Colchicine binding, percent of control without competitor, Mean (tubulin heterodimer [1]): 93%
[3H]Vinblastine binding, percent of control without competitor, Mean (tubulin heterodimer [2]): 92%

CN(C)CCCOc1cc(F)c(-c2c(Cl)nc3ncnn3c2NCC(F)(F)F)c(F)c1.Cl [Example 4a, 5-Chloro-6-{4-[3-(dimethylamino)propoxy]-2,6-difluorophenyl}-N-(2,2,2-trifluoroethyl)[1,2,4]triazolo[1,5-a]pyrimidin-7-amine Hydrogen chloride Salt]
absorbance increase, polymerization of pure tubulin (pure tubulin; 2.7 μM): no effect
absorbance increase, polymerization of pure tubulin (pure tubulin; 8.1 μM): lower and less rapid increase
A340 at 0 min (pure tubulin; 24.3 μM): 0
A340 at 5 min (pure tubulin; 24.3 μM): 0.14
A340 at 10 min (pure tubulin; 24.3 μM): 0.16
A340 at 15 min (pure tubulin; 24.3 μM): 0.16
A340 at 20 min (pure tubulin; 24.3 μM): 0.15
absorbance increase, polymerization of pure tubulin (pure tubulin; 24.3 μM, first 5 min): rapid increase in absorbance
IC50 (KB-V1 cells): 162 nM
Ratio VI/KB (KB-V1 cells): 7
recognition by P-glycoprotein (KB-V1 cells): show recognition by P-glycoprotein
IC50 (HL-60/ADR cells): 34 nM
Ratio (HL-60/ADR cells): 0.65
IC50 (KB cells): 24 nM
[3H]Colchicine binding, percent of control without competitor, Mean (tubulin heterodimer [1]): 134%
[3H]Vinblastine binding, percent of control without competitor, Mean (tubulin heterodimer [2]): 15%

C[C@H](Nc1c(-c2c(F)cc(OCCCN(C)C)cc2F)c(Br)nc2ncnn12)C(F)(F)F [Example 25, 5-Bromo-6-{4-[3-(dimethylamino)propoxy]-2,6-difluorophenyl}-N-[(1S)-2,2,2-trifluoro-1-methylethyl][1,2,4]triazolo[1,5-a]pyrimidin-7-amine]
absorbance increase, polymerization of pure tubulin (pure tubulin; 2.7 μM): no effect
absorbance increase, polymerization of pure tubulin (pure tubulin; 8.1 μM): lower and less rapid increase
A340 at 0 min (pure tubulin; 24.3 μM): 0
A340 at 5 min (pure tubulin; 24.3 μM): 0.22
A340 at 10 min (pure tubulin; 24.3 μM): 0.23
A340 at 15 min (pure tubulin; 24.3 μM): 0.22
A340 at 20 min (pure tubulin; 24.3 μM): 0.22
absorbance increase, polymerization of pure tubulin (pure tubulin; 24.3 μM, first 5 min): rapid increase in absorbance
IC50 (KB-V1 cells): 165 nM
recognition by P-glycoprotein (KB-V1 cells): not recognized at all by P-glycoprotein
IC50 (HL-60/ADR cells): 68 nM
Ratio (HL-60/ADR cells): 0.65
IC50 (KB cells): 59 nM
[3H]Colchicine binding, percent of control without competitor, Mean (tubulin heterodimer [1]): 126%
[3H]Vinblastine binding, percent of control without competitor, Mean (tubulin heterodimer [2]): 14%

CNCCCOc1cc(F)c(-c2c(Cl)nc3ncnn3c2C2CCCCCC2)c(F)c1.O=C(O)C(F)(F)F [Example 32, 3-[4-(5-Chloro-7-cycloheptyl[1,2,4]triazolo[1,5-a]pyrimidin-6-yl)-3,5-difluorophenoxy]-N-methylpropan-1-amine trifluoroacetic acid salt]
absorbance increase, polymerization of pure tubulin (pure tubulin; 2.7 μM): no effect
absorbance increase, polymerization of pure tubulin (pure tubulin; 8.1 μM): lower and less rapid increase
A340 at 0 min (pure tubulin; 24.3 μM): 0
A340 at 5 min (pure tubulin; 24.3 μM): 0.26
A340 at 10 min (pure tubulin; 24.3 μM): 0.26
A340 at 15 min (pure tubulin; 24.3 μM): 0.25
A340 at 20 min (pure tubulin; 24.3 μM): 0.25
absorbance increase, polymerization of pure tubulin (pure tubulin; 24.3 μM, first 5 min): rapid increase in absorbance
IC50 (KB-V1 cells): 108 nM
Ratio VI/KB (KB-V1 cells): 9.9
recognition by P-glycoprotein (KB-V1 cells): show recognition by P-glycoprotein
IC50 (HL-60/ADR cells): 6.6 nM
Ratio (HL-60/ADR cells): 0.92
IC50 (KB cells): 11 nM
[3H]Colchicine binding, percent of control without competitor, Mean (tubulin heterodimer [1]): 94%
[3H]Vinblastine binding, percent of control without competitor, Mean (tubulin heterodimer [2]): 15%
